Results on 7 molecules are retold here after ChEMBL document CHEMBL3351629, “Modulators of the nuclear receptor retinoic acid receptor-related orphan receptor-γ (RORγ or RORc)” (J Med Chem, 2014).

In test [1] the target is T1, Nuclear receptor ROR-gamma (Homo sapiens) (UniProt P51449).
T1 sequence (whole entry): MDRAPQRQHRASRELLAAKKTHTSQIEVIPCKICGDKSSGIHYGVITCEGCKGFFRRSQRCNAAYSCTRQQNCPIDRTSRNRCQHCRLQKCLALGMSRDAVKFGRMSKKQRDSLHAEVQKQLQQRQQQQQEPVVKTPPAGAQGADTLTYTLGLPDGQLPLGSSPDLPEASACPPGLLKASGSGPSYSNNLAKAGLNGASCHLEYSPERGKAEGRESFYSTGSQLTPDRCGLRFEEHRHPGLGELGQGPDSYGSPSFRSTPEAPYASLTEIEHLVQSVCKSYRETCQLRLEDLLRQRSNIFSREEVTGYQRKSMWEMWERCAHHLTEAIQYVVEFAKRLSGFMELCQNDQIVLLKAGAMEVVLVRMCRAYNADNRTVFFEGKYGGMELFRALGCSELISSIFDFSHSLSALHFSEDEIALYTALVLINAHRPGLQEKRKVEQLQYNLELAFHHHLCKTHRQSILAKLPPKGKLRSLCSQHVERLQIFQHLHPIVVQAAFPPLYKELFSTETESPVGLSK
The test is described as follows: Activity at human RoRc in human Jurkat cells assessed as inhibition of IL-17 promoter at 3 uM relative to control. The test is classed as cell-based.

Test [2] concerns the target T2, Nuclear receptor ROR-gamma (Mus musculus) (UniProt P51450).
T2 sequence (whole entry): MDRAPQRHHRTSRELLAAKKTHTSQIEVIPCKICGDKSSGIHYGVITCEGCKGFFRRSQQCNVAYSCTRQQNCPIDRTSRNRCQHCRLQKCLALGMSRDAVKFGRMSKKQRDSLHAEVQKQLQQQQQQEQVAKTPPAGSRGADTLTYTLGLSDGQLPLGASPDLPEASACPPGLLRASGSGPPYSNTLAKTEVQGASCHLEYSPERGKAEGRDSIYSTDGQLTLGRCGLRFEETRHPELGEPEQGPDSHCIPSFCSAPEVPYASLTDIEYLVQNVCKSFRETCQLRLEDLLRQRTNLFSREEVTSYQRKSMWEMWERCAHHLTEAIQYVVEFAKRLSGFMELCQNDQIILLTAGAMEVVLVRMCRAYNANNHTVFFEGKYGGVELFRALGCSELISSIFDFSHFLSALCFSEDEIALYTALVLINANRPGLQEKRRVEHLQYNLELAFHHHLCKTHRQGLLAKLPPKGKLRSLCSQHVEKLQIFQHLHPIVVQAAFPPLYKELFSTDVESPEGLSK
The test is described as follows: Activity at RoRc in mouse CD4+ T cells assessed as inhibition of IL-17 production at 10 uM. The test is classed as cell-based. Particulars: T-cell.

Test [3] concerns Mus musculus. The test is described as follows: Decrease in serum IL-17a level in mouse at 100 mg/kg in presence of anti-CD3 antibody. Format: functional.
Test [4] has as its system Mus musculus. The test is described as follows: Decrease in serum IL-17a level in mouse at 30 mg/kg in presence of anti-CD3 antibody. The test is classed as functional.
Test [5] deals with Mus musculus. The test is described as follows: Decrease in serum IL-17a level in mouse at 300 mg/kg in presence of anti-CD3 antibody. Format: functional.
The target of test [6] is T1, Nuclear receptor ROR-gamma (Homo sapiens). The test is described as follows: Inverse agonist activity at human RoRc in human skin model assessed as suppression of IL-17A level relative to control. Format: functional. Particulars: concentration not given here.
For test [7] the target is unchanged. The test is described as follows: Inverse agonist activity at human RoRc in human skin model assessed as suppression of IL-22 level relative to control. The settings on record: concentration not given here.
Test [8] has as its target T3, Nuclear receptor ROR-gamma (Homo sapiens, UniProt P51449).
T3 sequence (P51449 whole entry): T1 sequence (whole entry)
The test is described as follows: Inverse agonist activity at human RoRc-LBD fusion protein with GST expressed in […] cells assessed as SRC1 coactivator peptide recruitment. The test is classed as functional, cell-based.

The target of test [9] is T3, Nuclear receptor ROR-gamma. The test is described as follows: Inhibition of RORc (unknown origin) assessed as inhibition of fluorescein-D22 recruitment by TR-FRET assay. The test is classed as functional. For orientation: In TR-FRET formats the signal depends on donor and acceptor labels being close together.
Test [10] addresses T3, Nuclear receptor ROR-gamma. The test is described as follows: Agonist activity at RoRc-LBD (unknown origin) expressed in Drosophilla S2 cells assessed as transcriptional activity by GAL4 reporter assay. Format: functional, cell-based. A general note: In a reporter assay the amount or activity of a reporter protein is the signal.
Test [11] deals with T3, Nuclear receptor ROR-gamma. The test is described as follows: Binding affinity to RORgamma (unknown origin).

`COc1ccc(-c2c(-c3nc(CC(=O)NCC4CCOCC4)cs3)cnn2C(C)(C)C)cc1F`: the inhibition amounted to 96% in [1] and 91% in [2].
Consider `CCn1c2ccccc2c2cc(NC(=O)CC(C)CC(=O)Nc3ccc(C#N)c(Cl)c3)ccc21` (stereo not drawn), for which, in the test with Mus musculus [3], the inhibition in vivo at 100 mg/kg worked out at 25%. Moreover, the inhibition in [2] amounted to 96%. In addition, the inhibition in vivo at 30 mg/kg in the test on Mus musculus [4] stood at 10%. Moreover, the inhibition in vivo at 300 mg/kg in the test on Mus musculus [5] turned out to be 53%.
Take `CCc1ccc(N(CC(C)C)S(=O)(=O)c2ccc(C(O)CN3CCOCC3)c(CO)c2)cc1` (stereo not drawn): the inhibition in [6] was determined as 83%; in test [7] it was 60%. Moreover, the EC50 in [8] came to 32 nM.
In the case of `CCS(=O)(=O)c1ccc(CC(=O)Nc2ccc(-n3ccc(C)n3)c(Oc3cccc(OC(F)(F)F)c3)c2)cc1`, the EC50 in test [9] is below 50 nM.
In the case of `COC(=O)[C@H]1CC[C@]2(O)[C@@H]3CC[C@@H]4C[C@@H](O[C@H]5C[C@H](O)[C@H](O[C@H]6C[C@H](O)[C@H](O[C@H]7C[C@H](O)[C@H](O)[C@@H](C)O7)[C@@H](C)O6)[C@@H](C)O5)CC[C@]4(C)[C@H]3C[C@@H](O)[C@]12C`, in test [10], the EC50 was 1000 nM.
The molecule `C[C@H]1O[C@@H](O[C@H]2[C@@H](O)C[C@H](O[C@H]3[C@@H](O)C[C@H](O[C@H]4CC[C@@]5(C)[C@H](CC[C@@H]6[C@@H]5C[C@@H](O)[C@]5(C)[C@@H]([C@@H](CO)CCO)CC[C@]65O)C4)O[C@@H]3C)O[C@@H]2C)C[C@H](O)[C@@H]1O` returned an IC50 in test [11] of 12000 nM.
`CCS(=O)(=O)c1ccc(CC(=O)Nc2ccc(-c3ccccc3)c(Oc3ccccc3)c2)cc1`: the concentration giving a half-maximal response (EC50) in [9] is below 50 nM.

The inhibition is the share of the control response that was lost under treatment. One may read the inhibition in vivo as the share of the control response that was lost under treatment. As a reminder, the EC50 is the midpoint of the concentration-response curve. Usually IC50 stands for the concentration that gives 50% inhibition.
